In patent publication US20240300991A1, “NUCLEOSIDE DERIVATIVE HAVING MULTI-TARGET KINASE INHIBITORY ACTIVITY AND PHARMACEUTICAL COMPOSITION FOR PREVENTING AND TREATING CANCER COMPRISING SAME” (FUTURE MEDICINE CO., LTD., priority 2021, published 2024):

Assays:
[1] = system: PC-3 (prostate cancer cells); experiment: Inhibitory activity against cancer cells (sulforhodamine B staining); assay type: cell-based; settings: 3 days, SRB staining
Experimental: (§1) In order to examine the anticancer activity of the nucleoside derivatives of the present invention synthesized in the Preparation Examples, the ICso of each of A549 (lung cancer cells), HCT116 (colon cancer cells), MDA-MB-231 (breast cancer cells), SK-Hep-1 (liver cancer cells), SNU638 (stomach cancer cells) and PC-3 (prostate cancer cells) against cancer cells was measured.
(§2) The test method is as follows. Cells were allowed to stand for 1 day and set as a control on day 0. Further, after a test material was added to the cells, the cells were allowed to stand for 3 days. Thereafter, the cells were stained with 1% acetic acid and 0.4% sulforhodamine B. The stained cells were dried and dissolved in 10 mM Tris (pH 10.0). Absorbance was measured at 515 nm, and the degree of cell division was determined using the following equation. After calculation as Cell division (%)=(average absorbancetest material−average absorbanceday 0)/(average absorbance control-average absorbanceday 0)×100, the degree of cell division was calculated through a non-linear regression analysis using Table Curve 2D v5.01 (Systat Software Inc., San Jose, CA, USA).

DYRK1B = target: T1, DYRK1B (Homo sapiens, UniProt Q9Y463); experiment: Kinase inhibition test (DNA-tagged kinase, affinity resin, qPCR readout); assay type: binding; set-up: key: (−) indicates no effect; (+) indicates weak inhibitory activity; (++) indicates a moderate level of inhibitory activity; (+++) indicates strong inhibitory activity; settings: 1 μM of compound
T1 construct: made in house
From the text: (§3) In order to examine the inhibitory activity of the nucleoside derivatives of the present invention synthesized in the Preparation Examples against kinases, the nucleoside derivatives were confirmed to have inhibitory activity against neurotrophic tyrosine kinase receptor type 1 or tropomyosin receptor kinase A (NTRK1), casein kinase 1 isoform delta (CSNK1D), dual specificity tyrosine-phosphorylation-regulated kinase 1A (DYRK1A), dual specificity tyrosine-phosphorylation-regulated kinase 1B (DYRK1B) and receptor-type tyrosine-protein kinase or fms like tyrosine kinase 3 or cluster of differentiation antigen 135 (CD135) or fetal liver kinase-2 (Flk2) (FLT3).
(§4) The inhibition measurement method is as follows. Most of the kinases were produced by culturing a phage in which BL21 E. coli was tagged with a kinase at 32° C. until lysis, followed by centrifugation and filtration. Further, the kinases were produced using HEK-293 cells. Thereafter, the kinases were DNA tagged for qPCR. After an affinity resin was prepared by stirring a biotin-tagged substrate onto streptavidin-coated beads for 30 minutes, a non-specifically bound substrate was washed with a buffer (SeaBlock (Pierce), 1% BSA, 0.05% Tween 20, 1 mM DTT).
(§5) For a kinase test, the kinase, the substrate, the affinity resin, and a test material dissolved in dimethyl sulfoxide were stirred together in a buffer (20% SeaBlock, 0.17×PBS, 0.05% Tween20, and 6 mM DTT) at room temperature for 1 hour. Thereafter, an affinity substrate was washed with a buffer (1×PBS, 0.05% Tween20), and then suspended in an elution buffer (1×PBS, 0.05% Tween20, 0.5 μM non-biotinylated affinity ligand), and the resulting suspension was stirred. The concentration of the kinase was quantified by qPCR.

DYRK1A = target: T2, DYRK1A (Homo sapiens, UniProt Q13627); experiment: as above; assay type: binding; set-up: key: (−) indicates no effect; (+) indicates weak inhibitory activity; (++) indicates a moderate level of inhibitory activity; (+++) indicates strong inhibitory activity; settings: 1 μM of compound
T2 construct: made in house
From the text: as §3, §4, §5

CSNK1D = target: T3, CSNK1D (Homo sapiens, UniProt P48730); experiment: as above; assay type: binding; set-up: key: (−) indicates no effect; (+) indicates weak inhibitory activity; (++) indicates a moderate level of inhibitory activity; (+++) indicates strong inhibitory activity; settings: 1 μM of compound
T3 construct: made in house
From the text: as §3, §4, §5

NTRK1 = target: T4, NTRK1 (Homo sapiens, UniProt P04629); experiment: as above; assay type: binding; set-up: key: (−) indicates no effect; (+) indicates weak inhibitory activity; (++) indicates a moderate level of inhibitory activity; (+++) indicates strong inhibitory activity; settings: 1 μM of compound
T4 construct: made in house
From the text: as §3, §4, §5

[2] = system: MDA-MB-231 (breast cancer cells); experiment: Inhibitory activity against cancer cells (sulforhodamine B staining); assay type: cell-based; settings: 3 days, SRB staining
Experimental: as §1, §2

A549 (lung cancer cells) = experiment: as above; assay type: cell-based; settings: 3 days, SRB staining
Experimental: as §1, §2

[3] = system: SNU638 (stomach cancer cells); experiment: as above; assay type: cell-based; settings: 3 days, SRB staining
Experimental: as §1, §2

[4] = system: SK-Hep-1 (liver cancer cells); experiment: as above; assay type: cell-based; settings: 3 days, SRB staining
Experimental: as §1, §2

[5] = system: HCT116 (colon cancer cells); experiment: as above; assay type: cell-based; settings: 3 days, SRB staining
Experimental: as §1, §2

T4 sequence (P04629 33-796): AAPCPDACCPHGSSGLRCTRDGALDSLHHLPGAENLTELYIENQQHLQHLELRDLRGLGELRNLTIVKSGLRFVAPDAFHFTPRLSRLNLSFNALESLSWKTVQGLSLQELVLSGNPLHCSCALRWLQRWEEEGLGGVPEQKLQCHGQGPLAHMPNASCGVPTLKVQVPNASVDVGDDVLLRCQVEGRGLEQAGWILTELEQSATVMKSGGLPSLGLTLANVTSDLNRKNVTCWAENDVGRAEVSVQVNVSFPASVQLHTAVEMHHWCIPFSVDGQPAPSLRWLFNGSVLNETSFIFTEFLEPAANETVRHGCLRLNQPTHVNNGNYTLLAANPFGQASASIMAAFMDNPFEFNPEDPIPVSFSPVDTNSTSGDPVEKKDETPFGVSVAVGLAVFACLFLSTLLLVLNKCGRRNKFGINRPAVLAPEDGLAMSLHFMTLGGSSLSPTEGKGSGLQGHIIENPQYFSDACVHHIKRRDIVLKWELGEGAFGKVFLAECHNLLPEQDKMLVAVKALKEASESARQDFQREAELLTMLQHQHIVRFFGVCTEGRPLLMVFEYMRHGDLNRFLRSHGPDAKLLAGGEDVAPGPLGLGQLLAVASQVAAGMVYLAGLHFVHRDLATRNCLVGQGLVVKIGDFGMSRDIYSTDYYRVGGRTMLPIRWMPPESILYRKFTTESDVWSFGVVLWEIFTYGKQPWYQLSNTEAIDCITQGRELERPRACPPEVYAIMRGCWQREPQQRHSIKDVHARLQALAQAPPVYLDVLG
T1 sequence (Q9Y463 whole entry): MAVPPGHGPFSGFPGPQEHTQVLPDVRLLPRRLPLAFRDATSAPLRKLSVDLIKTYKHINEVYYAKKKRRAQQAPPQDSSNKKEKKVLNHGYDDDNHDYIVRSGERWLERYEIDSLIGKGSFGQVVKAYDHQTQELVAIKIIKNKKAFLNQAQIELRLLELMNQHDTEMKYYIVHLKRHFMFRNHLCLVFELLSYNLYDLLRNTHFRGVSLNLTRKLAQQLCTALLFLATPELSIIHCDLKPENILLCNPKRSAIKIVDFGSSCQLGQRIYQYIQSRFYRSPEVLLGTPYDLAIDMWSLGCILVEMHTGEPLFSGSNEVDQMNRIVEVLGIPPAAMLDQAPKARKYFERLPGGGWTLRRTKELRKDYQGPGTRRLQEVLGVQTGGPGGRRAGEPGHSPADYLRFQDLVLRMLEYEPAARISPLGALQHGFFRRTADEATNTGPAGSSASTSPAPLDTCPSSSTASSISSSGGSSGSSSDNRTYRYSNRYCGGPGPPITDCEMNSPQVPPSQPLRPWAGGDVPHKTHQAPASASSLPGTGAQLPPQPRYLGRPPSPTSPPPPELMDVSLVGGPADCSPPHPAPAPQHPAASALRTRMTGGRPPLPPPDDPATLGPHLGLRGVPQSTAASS
T3 sequence (P48730 whole entry): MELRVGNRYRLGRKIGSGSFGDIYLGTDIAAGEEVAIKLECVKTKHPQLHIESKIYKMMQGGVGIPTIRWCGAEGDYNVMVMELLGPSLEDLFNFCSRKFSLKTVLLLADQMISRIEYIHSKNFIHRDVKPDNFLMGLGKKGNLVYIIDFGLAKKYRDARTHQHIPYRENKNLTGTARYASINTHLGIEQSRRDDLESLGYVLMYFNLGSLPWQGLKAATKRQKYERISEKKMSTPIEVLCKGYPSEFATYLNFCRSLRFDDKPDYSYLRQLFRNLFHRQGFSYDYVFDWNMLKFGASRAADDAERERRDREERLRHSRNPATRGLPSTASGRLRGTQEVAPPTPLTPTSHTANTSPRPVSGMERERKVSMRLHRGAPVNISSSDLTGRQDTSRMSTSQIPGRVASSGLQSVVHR

Row | SMILES | IC50 ([1]; 72 h) | DYRK1B inhibitory activity (DYRK1B) | DYRK1A inhibitory activity (DYRK1A) | CSNK1D inhibitory activity (CSNK1D) | NTRK1 inhibitory activity (NTRK1) | IC50 [2] | IC50 [1] | IC50 (A549 (lung cancer cells)) | IC50 [3] | IC50 [4] | IC50 [5] | IC50 ([2]; Homo sapiens, 72 h) | IC50 (A549 (lung cancer cells); Homo sapiens, 72 h) | IC50 ([3]; Homo sapiens, SNU-638, 72 h) | IC50 ([4]; Homo sapiens, SK-HEP1, 72 h) | IC50 ([5]; Homo sapiens, HCT-116, 72 h)
1 | Nc1ncnc2c1c(-c1ccco1)cn2[C@@H]1S[C@H](CO)[C@@H](O)[C@H]1O [Compound 1a, (2R,3R,4S,5R)-2-(4-amino-5-(furan-2-yl)-7H-pyrrolo[2,3-d]pyrimidin-7-yl)-5-(hydroxymethyl)tetrahydrothiophene-3,4-diol] | 2460 nM | +++ | +++ | ++ | +++ |  |  |  |  |  |  |  |  |  |  | 
2 | Nc1ncnc2c1c(-c1cccs1)cn2[C@@H]1S[C@H](CO)[C@@H](O)[C@H]1O [Compound 1b, (2R,3R,4S,5R)-2-(4-amino-5-(thiophen-2-yl)-7H-pyrrolo[2,3-d]pyrimidin-7-yl)-5-(hydroxymethyl)tetrahydrothiophene-3,4-diol] | 2480 nM | ++ | ++ | +++ | +++ |  |  |  |  |  |  |  |  |  |  | 
3 | Nc1ncnc2c1c(-c1ccccc1)cn2[C@@H]1S[C@H](CO)[C@@H](O)[C@H]1O [Compound 2b] |  | ++ | ++ | +++ | ++ | 8830 nM | 9210 nM | 7570 nM | 6320 nM | 7810 nM | 6350 nM |  |  |  |  | 
4 | C#Cc1cn([C@@H]2S[C@H](CO)[C@@H](O)[C@H]2O)c2ncnc(N)c12 [Compound 3, (2R,3R,4S,5R)-2-(4-amino-5-ethynyl-7H-pyrrolo[2,3-d]pyrimidin-7-yl)-5-(hydroxymethyl)tetrahydrothiophene-3,4-diol] | 4 nM | +++ | +++ | ++ | ++ |  |  |  |  |  |  | 50 nM | 60 nM | 30 nM | 50 nM | 30 nM
5 | CCC#Cc1cn([C@@H]2S[C@H](CO)[C@@H](O)[C@H]2O)c2ncnc(N)c12 [Compound 4b] |  | + | + | + | + | > 50000 nM | > 50000 nM | > 50000 nM | > 50000 nM | > 50000 nM | > 50000 nM |  |  |  |  | 
6 | CC(C)(C)C#Cc1cn([C@@H]2S[C@H](CO)[C@@H](O)[C@H]2O)c2ncnc(N)c12 [Compound 4c] |  | − | − | + | + | 29600 nM | > 50000 nM | > 50000 nM | > 50000 nM | > 50000 nM | > 50000 nM |  |  |  |  | 
7 | Nc1ncnc2c1c(C#CC1CC1)cn2[C@@H]1S[C@H](CO)[C@@H](O)[C@H]1O [Compound 4d] |  | − | − | + | ++ | 30600 nM | > 50000 nM | > 50000 nM | > 50000 nM | 8310 nM | > 50000 nM |  |  |  |  | 
8 | N#Cc1cn([C@@H]2S[C@H](CO)[C@@H](O)[C@H]2O)c2ncnc(N)c12 [Compound 5, 4-amino-7-((2R,3R,4S,5R)-3,4-dihydroxy-5-(hydroxymethyl)tetrahydrothiophen-2-yl)-7H-pyrrolo[2,3-d]pyrimidine-5-carbonitrile] | 2180 nM | ++ | +++ | ++ | ++ |  |  |  |  |  |  | 2240 nM | 2580 nM | 1220 nM | 1790 nM | 1590 nM
9 | NC(=O)c1cn([C@@H]2S[C@H](CO)[C@@H](O)[C@H]2O)c2ncnc(N)c12 [Compound 6, 4-amino-7-((2R,3R,4S,5R)-3,4-dihydroxy-5-(hydroxymethyl)tetrahydrothiophen-2-yl)-7H-pyrrolo[2,3-d]pyrimidine-5-carboxamide] | 1800 nM | ++ | +++ | ++ | + |  |  |  |  |  |  | 2100 nM | 1990 nM | 1130 nM | 1660 nM | 1350 nM
10 | Nc1ncnc2c1c(-c1ccco1)cn2[C@@H]1S[C@H](COC(=O)c2ccccc2)[C@@H](O)[C@H]1O [Compound 7a] |  | +++ | +++ | ++ | +++ | 8240 nM | > 50000 nM | 6050 nM | 3540 nM | 1070 nM | 2210 nM |  |  |  |  | 
11 | C#Cc1cn([C@@H]2S[C@H](COC(=O)c3ccccc3)[C@@H](O)[C@H]2O)c2ncnc(N)c12 [Compound 7b] |  | ++ | ++ | ++ | +++ | 2130 nM | 2050 nM | 3190 nM | 1310 nM | 570 nM | 2860 nM |  |  |  |  | 
12 | C#Cc1cn([C@@H]2S[C@H](COC(=O)c3ccc(Cl)cc3)[C@@H](O)[C@H]2O)c2ncnc(N)c12 [Compound 7c] |  | ++ | ++ | ++ | ++ | 290 nM | 230 nM | 270 nM | 130 nM | 180 nM | 230 nM |  |  |  |  | 
13 | C#Cc1cn([C@@H]2S[C@H](COC(=O)c3ccc(OC)cc3)[C@@H](O)[C@H]2O)c2ncnc(N)c12 [Compound 7d] |  | ++ | ++ | ++ | ++ | 360 nM | 330 nM | 350 nM | 190 nM | 250 nM | 300 nM |  |  |  |  | 
14 | C#Cc1cn([C@@H]2S[C@H](CN3CCOCC3)[C@@H](O)[C@H]2O)c2ncnc(N)c12 [Compound 12a, (2R,3R,4S,5R)-2-(4-amino-5-ethynyl-7H-pyrrolo[2,3-d]pyrimidin-7-yl)-5-(morpholinomethyl)tetrahydrothiophene-3,4-diol] | 13200 nM |  |  |  |  |  |  |  |  |  |  | 11200 nM | 11700 nM | 9700 nM | 10200 nM | 9720 nM
15 | C#Cc1cn([C@@H]2SC(=C)[C@@H](O)[C@H]2O)c2ncnc(N)c12 [Compound 12b, (2R,3R,4S)-2-(4-amino-5-ethynyl-7H-pyrrolo[2,3-d]pyrimidin-7-yl)-5-methylenetetrahydrothiophene-3,4-diol] |  | +++ | +++ | +++ | +++ |  |  |  |  |  |  | 500 nM | 250 nM | 620 nM | 310 nM | 730 nM
